Measurements as given in PubChem BioAssay (NCI).
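The compound was tested at five concentrations on cells cultured in 96-well plates, with a 48-hour exposure period. Definition used: TGI = concentration required for complete inhibition of growth.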

Experiments:
Experiment in all cases: NCI-60 cell line screen, 48 h
SNB-78 CNS = tested on: SNB-78 CNS
SK-MEL-28 melanoma = tested on: SK-MEL-28 melanoma
SNB-75 CNS = tested on: SNB-75 CNS
NCI-H460 lung = tested on: NCI-H460 lung
SK-MEL-5 melanoma = tested on: SK-MEL-5 melanoma
DLD-1 colon = tested on: DLD-1 colon
LOX IMVI melanoma = tested on: LOX IMVI melanoma
MOLT-4 leukemia = tested on: MOLT-4 leukemia
HCT-116 colon = tested on: HCT-116 colon
UACC-62 melanoma = tested on: UACC-62 melanoma
SF-268 CNS = tested on: SF-268 CNS
M19-MEL melanoma = tested on: M19-MEL melanoma
UO-31 renal = tested on: UO-31 renal
ACHN renal = tested on: ACHN renal
MALME-3M melanoma = tested on: MALME-3M melanoma
SF-295 CNS = tested on: SF-295 CNS
EKVX NSCLC = tested on: EKVX NSCLC
HL-60(TB) leukemia = tested on: HL-60(TB) leukemia
HOP-92 NSCLC = tested on: HOP-92 NSCLC
U251 CNS = tested on: U251 CNS
KM20L2 colon = tested on: KM20L2 colon
NCI-H522 lung = tested on: NCI-H522 lung
HOP-18 NSCLC = tested on: HOP-18 NSCLC
LXFL 529 NSCLC = tested on: LXFL 529 NSCLC
COLO 205 colon = tested on: COLO 205 colon
M14 melanoma = tested on: M14 melanoma
KM12 colon = tested on: KM12 colon
786-0 renal = tested on: 786-0 renal
CCRF-CEM leukemia = tested on: CCRF-CEM leukemia
SN12C renal = tested on: SN12C renal
DMS 114 small cell lung = tested on: DMS 114 small cell lung
OVCAR-3 ovarian = tested on: OVCAR-3 ovarian
A549 NSCLC = tested on: A549 NSCLC
NCI-H23 lung = tested on: NCI-H23 lung
SF-539 CNS = tested on: SF-539 CNS
A498 renal = tested on: A498 renal
SR leukemia = tested on: SR leukemia
UACC-257 melanoma = tested on: UACC-257 melanoma
TK-10 renal = tested on: TK-10 renal
OVCAR-8 ovarian = tested on: OVCAR-8 ovarian
SNB-19 CNS = tested on: SNB-19 CNS
K-562 leukemia = tested on: K-562 leukemia
NCI-H226 lung = tested on: NCI-H226 lung
HCC-2998 colon = tested on: HCC-2998 colon
HOP-62 NSCLC = tested on: HOP-62 NSCLC
RXF 393 renal = tested on: RXF 393 renal
XF 498 CNS = tested on: XF 498 CNS
CAKI-1 renal = tested on: CAKI-1 renal
OVCAR-4 ovarian = tested on: OVCAR-4 ovarian
IGROV1 ovarian = tested on: IGROV1 ovarian
SW-620 colon = tested on: SW-620 colon
HT29 colon = tested on: HT29 colon
SK-OV-3 ovarian = tested on: SK-OV-3 ovarian

Measured: TGI

CSc1nc2c(nc(N)n2C2OC(CO)C(O)C(O)C2O)c(=O)n1C (stereo not drawn)
> 100 µM: all assays above
